Experimental data from patent US4500526A, “Cephalosporin derivatives” (Bristol-Myers Company, priority 1983, dated 1985).
Converted amounts (≈) assume the structure as drawn. Where two headings read alike, the source gives them in different places.

How the values were obtained:
[1] = tested on: H. influenzae (3) (ampicillin resistant); assay: In vitro activity against fastidious bacteria, two-fold serial agar dilution; type: cell-based; conditions: Haemophilus influenzae, read-out: Geometric Mean of MIC
Description: (§1) The in vitro activity of some of the preferred compounds against 30 strains of fastidious bacteria was determined by the two-fold serial agar dilution method in Gonococcus agar (GC agar), and the results are shown in Table 3.

[2] = tested on: N. gonorrhoeae (5); assay: as above; type: cell-based; conditions: Neisseria gonorrhoeae, read-out: Geometric Mean of MIC
Description: as §1

[3] = tested on: N. meningitidis (5); assay: as above; type: cell-based; conditions: Neisseria meningitidis, read-out: Geometric Mean of MIC
Description: as §1

[4] = tested on: S. pneumoniae (5); assay: as above; type: cell-based; conditions: Streptococcus pneumoniae; GC agar; read-out: Geometric Mean of MIC
Description: as §1

[5] = tested on: S. pyogenes (5 strains); assay: as above; type: cell-based; conditions: Streptococcus pyogenes; GC agar; read-out: Geometric Mean of MIC
Description: as §1

[6] = Solubility in water; type: physicochemical
Description: A more soluble form of Compound Ia was prepared as follows. […] Powdered NaHCO3 was added in small portions, with stirring. A clear solution was obtained after adding 5.0 mg of NaHCO3 and the indicated pH then was 6.0. After filtration through a Millipore membrane filter to remove they insoluble impurities, the filtrate was lyophilized to give 245 mg of a water-soluble form of Compound Ia, mp 165° C. Estimated purity 80% (by HPLC). The sample was completely soluble in water to give a 25% solution.
To a stirred solution of diphenylmethyl 7-[(Z)-2-t-butoxycarbonylprop-2-oxyimino)-2-(2-tritylaminothiazol-4-yl)-acetamido]-3-iodomethyl-3-cephem-4-carboxylate [VIId'] (700 mg, 0.66 mmole) in 3 mL of DMSO, was added thiazolo[4,5-c]pyridine (115 mg, 0.84 mmole) in two portions and the mixture was stirred for 1.25 hours at room temperature. The reaction mixture was diluted with ether (150 mL) to separate an oily product, which was washed again with ether. The residue was dissolved in methylene chloride (100 mL) and the solution was filtered and evaporated to give 655 mg of the blocked product [XIIId']. The yellow product (630 mg) was suspended in anisole (1 mL) and, with ice cooling, was treated with a mixture of TFA (10 mL) and water (0.5 mL). The mixture was stirred for 20 minutes with ice cooling and then for 1 hour at room temperature. After evaporation of the mixture below 30° C., the residue was triturated with isopropyl ether (50 mL). The precipitate was collected by filtration, and dried under reduced pressure to obtain 485 mg of crude title compound as a yellow powder. The crude product (480 mg) was dissolved in a small volume of aqueous sodium bicarbonate and purified by HPLC (Column, Lichrosorb RP-18; mobile phase, water). The desired fractions were combined (ca. 90 mL) and acidified to pH 2 with dilute hydrochloric acid. The acidified solution was passed through an HP-20 column (50 mL) and washed with water (200 mL). […] Mp >180° C. (dec.).
The free acid of Compound Id (100 mg) was dissolved in a small volume of aqueous sodium bicarbonate and subjected to HPLC (Column, Lichrosorb RP-18; mobile phase, water). The eluate containing the desired product which was concentrated and lyophilized to give 30 mg of the sodium salt of Id as a pale yellow amorphous powder, which was more than 25% soluble in water. Mp 178°-196° C. (dec.).
A solution of diphenylmethyl 7-[(Z)-(2-t-butoxycarbonylprop-2-oxyimino)-2-(2-tritylaminothiazol-4-yl)acetamido]-3-iodomethyl-3-cephem-4-carboxylate [VIId'] (9.0 g, 8.5 mmoles) and thiazolo[4,5-c]pyridine (1.5 g, 11 mmoles) in dimethylsulfoxide (38 mL) was stirred at room temperature for 1 hour. The reaction mixture was poured into ether (500 mL) and, after decantation, the oily precipitate was dissolved in chloroform (300 mL). […]

[7] = tested on: H. influenzae (7) (ampicillin sensitive); assay: In vitro activity against fastidious bacteria, two-fold serial agar dilution; type: cell-based; conditions: Haemophilus influenzae, GC agar, 7 strains, read-out: Geometric Mean of MIC
Description: as §1

[8] = tested on: S. pyogenes A20201; assay: Median protective dose in infected mice; type: in vivo; conditions: Streptococcus pyogenes, im, immediately after intraperitoneal challenge, read-out: PD50
Description: The median protective dose (PD50) of some of the preferred compounds against various microorganisms was determined in mice by intramuscular administration of the test compound immediately after an intraperitoneal bacterial challenge.

SMILES	MIC ([1]; GC agar, ampicillin resistant, 3 strains)	MIC ([2]; GC agar)	MIC ([3]; GC agar)	MIC [4]	MIC [5]	solubility in water ([6]; 250 mg in distilled water 1.0 mL, indicated pH 4.3)	solubility ([6]; water-soluble form (NaHCO3 to pH 6.0, lyophilized))	MIC [1]	MIC [7]	MIC [2]	MIC [3]	ED50 [8]	solubility in water ([6]; free acid)	solubility ([6]; water, sodium salt)
CO/N=C(\C(=O)NC1C(=O)N2C(C(=O)[O-])=C(C[n+]3ccc4scnc4c3)CS[C@H]12)c1csc(N)n1 (stereo partly shown) [Ia, 7-[(Z)-2-(2-Aminothiazol-4-yl)-2-methoxyiminoacetamido]-3-{(5-thiazolo[4,5-c]pyridinio)methyl}-3-cephem-4-carboxylate]	0.0125 µg/mL (≈ 0.0235 µM)	0.0125 µg/mL (≈ 0.0235 µM)	0.0125 µg/mL (≈ 0.0235 µM)	0.0125 µg/mL (≈ 0.0235 µM)	0.0125 µg/mL (≈ 0.0235 µM)	not completely soluble	≥ 250 mg/mL							
CC(C)(O/N=C(\C(=O)NC1C(=O)N2C(C(=O)[O-])=C(C[n+]3ccc4scnc4c3)CS[C@H]12)c1csc(N)n1)C(=O)O (stereo partly shown) [Id, 7-[(Z)-2-(2-Aminothiazol-4-yl)-2-(2-carboxyprop-2-oxyimino)-acetamido]-3-{(5-thiazolo[4,5-c]pyridinio)methyl}-3-cephem-4-carboxylate]				0.2 µg/mL (≈ 0.331 µM)	0.2 µg/mL (≈ 0.331 µM)			0.1 µg/mL (≈ 0.166 µM)	0.1 µg/mL (≈ 0.166 µM)	0.1 µg/mL (≈ 0.166 µM)	0.1 µg/mL (≈ 0.166 µM)	0.23 mg/kg	slightly soluble in water	> 250 mg/mL
